Assay results: patent US20250340563A1, “FUSED PYRIDAZINE DERIVATIVES AS NLRP3 INHIBITORS” (Takeda Pharmaceutical Company Limited, priority 2022, published 2025)

What was measured:
NLRP3 inflammasome = NLRP3 inflammasome (Homo sapiens, UniProt Q96P20); test: IL-1β assay in IFN-γ-differentiated, LPS-primed, ATP-activated THP-1 cells (ELISA); format: cell-based; conditions: 50 ng/mL LPS priming, 2.5 mM ATP activation, 2 hours
Summary of the method: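 THP-1 cells differentiated with 25 ng/mL IFN-γ for 24 h, then primed with 50 ng/mL LPS for 24 h in serum-free medium. After 30 min compound preincubation (1:3.16 dilution series), inflammasome activated with 2.5 mM ATP for 2 h at 37 °C. Supernatant IL-1β measured by ELISA; IC50 from logistic fit of % inhibition.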

NF-κB pathway = test: TNF-α assay in IFN-γ-differentiated, LPS-stimulated THP-1 cells (ELISA); format: cell-based; conditions: Homo sapiens, 50 ng/mL LPS, 3 hours
Summary of the method: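 THP-1 cells differentiated with 25 ng/mL IFN-γ for 24 h, then preincubated 30 min at 37 °C with compound (1:3.16 serial dilutions) in serum-free medium. Stimulated with 50 ng/mL LPS for 3 h; supernatant assayed by human TNF-α ELISA. IC50 from four-parameter logistic fit of % inhibition.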

MDR1 (P-gp) = target: T1, MDR1 (P-gp) (Homo sapiens, UniProt P08183); test: MDCK-MDR1 assay (apparent permeability and efflux ratio); format: in vitro ADME; conditions: dog; for efflux ratio at 60 min, 1 µM: pH 7.4, MDCK-MDR1, P-gp mediated efflux ratio, read-out: MDR1 ER; for Papp A→B at 60 min, 1 µM: MDCK-MDR1 monolayer, apical to basolateral, pH 7.4, 60 minutes
T1 construct: expressed in transfected cells; host or cells: Madin-Darby Canine Kidney (MDCK) cells
Procedure: Madine-Darby Canine Kidney (MDCK) cells transfected with Multidrug resistance protein 1 (MDR1) are maintained in accordance with the provider's instructions in Dulbecco's Modified Eagle media (DMEM, Fisher Scientific Cat #10569044). DMEM is supplemented with 10% heat inactivated fetal bovine serum (Gibco Cat #16000-044), Penicillin-Streptomycin (100 units/mL) (Gibco Cat #15140122) and an inducer of P-gp, colchicine (200 nM) (Sigma Cat #C9754). The cells are seeded onto the apical side of HTS-Transwell-96 Plates (0.4 μm pore size, Corning Cat #3381) at a density of 6.25×10^3 cells per well with 75 μL and 250 μL of DMEM media in apical and basolateral wells, respectively, and are incubated at 37° C./5% CO2. Fresh DMEM media is exchanged in the apical and basolateral compartments after 72 hours and cells are allowed to grow into a monolayer for 144 hours before beginning the experimental incubation. Incubations are performed in Hanks' Balanced Salt Solution (HBSS, Fisher Scientific Cat #14025134) at pH 7.4 with 1% Bovine Serum Albumin (Sigma, Cat #A9418) and 10 mM HEPES (Fisher Scientific, Cat #15630080). DMEM media is removed and cells are rinsed with warm (37° C.) HBSS. HBSS with test compound at 1p M substrate concentration (0.1% v/v DMSO) is added to either the apical or basolateral compartment (75 μL or 250 μL, respectively) and blank HBSS buffer is added to the compartment which lacks test compound in singlicate. The cells are incubated for 60 minutes at 37° C./5% CO2. At the end of the incubation period, 50 μL of sample is removed from each receiver compartment and diluted into 150 μL of acetonitrile (Fisher Scientific, Cat #A996SK4)+0.1% formic acid (Sigma, Cat #F0507). The samples are centrifuged at 2000 rcf for 10 minutes at 4° C., after which 100 μL of supernatant is transferred to a new microplate and diluted with 100 μL of HPLC grade water (Fisher Scientific, Cat #W64). Samples are analyzed using a triple quadrupole mass spectrometer API-5500QTrap (ABSciex, Serial No. AU23291006) along with associated autosampler and high performance liquid chromatography pump instrumentation optimized for the detection of test articles through a Kinetix 2.1×50 mm C18 100 Å column (Phenomenex, Cat #00B-4605-AN).
Apparent permeability (Papp) values and efflux ratio are calculated using the following equations: […]

Sequence of NLRP3 inflammasome (Q96P20 whole entry): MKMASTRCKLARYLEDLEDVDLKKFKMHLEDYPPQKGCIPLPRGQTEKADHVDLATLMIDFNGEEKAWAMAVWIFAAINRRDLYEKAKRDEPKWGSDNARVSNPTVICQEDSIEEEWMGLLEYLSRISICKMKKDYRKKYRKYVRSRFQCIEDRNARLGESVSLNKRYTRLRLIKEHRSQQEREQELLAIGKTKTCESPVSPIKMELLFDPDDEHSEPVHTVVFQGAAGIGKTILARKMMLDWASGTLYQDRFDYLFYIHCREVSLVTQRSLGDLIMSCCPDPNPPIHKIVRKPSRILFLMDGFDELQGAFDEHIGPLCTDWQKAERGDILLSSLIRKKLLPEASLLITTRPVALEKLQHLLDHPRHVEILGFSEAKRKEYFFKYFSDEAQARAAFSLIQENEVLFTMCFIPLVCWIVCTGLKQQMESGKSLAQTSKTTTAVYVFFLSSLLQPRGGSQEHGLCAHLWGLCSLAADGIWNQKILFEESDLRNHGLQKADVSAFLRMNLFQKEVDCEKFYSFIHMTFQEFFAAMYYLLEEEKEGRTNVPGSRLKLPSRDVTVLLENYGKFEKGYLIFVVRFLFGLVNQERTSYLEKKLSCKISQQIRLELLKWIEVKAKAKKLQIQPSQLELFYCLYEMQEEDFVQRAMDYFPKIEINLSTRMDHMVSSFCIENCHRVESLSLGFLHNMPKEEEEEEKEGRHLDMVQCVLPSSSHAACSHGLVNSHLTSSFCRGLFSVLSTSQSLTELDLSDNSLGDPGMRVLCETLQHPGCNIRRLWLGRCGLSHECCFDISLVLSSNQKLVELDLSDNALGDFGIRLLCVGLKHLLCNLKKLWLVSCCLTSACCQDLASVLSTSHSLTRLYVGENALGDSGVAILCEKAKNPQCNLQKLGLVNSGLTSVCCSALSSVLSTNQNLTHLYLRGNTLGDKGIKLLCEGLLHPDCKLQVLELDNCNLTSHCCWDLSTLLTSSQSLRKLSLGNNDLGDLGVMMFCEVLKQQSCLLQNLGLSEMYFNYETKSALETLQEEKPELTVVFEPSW
T1 sequence (P08183 whole entry, species assumed): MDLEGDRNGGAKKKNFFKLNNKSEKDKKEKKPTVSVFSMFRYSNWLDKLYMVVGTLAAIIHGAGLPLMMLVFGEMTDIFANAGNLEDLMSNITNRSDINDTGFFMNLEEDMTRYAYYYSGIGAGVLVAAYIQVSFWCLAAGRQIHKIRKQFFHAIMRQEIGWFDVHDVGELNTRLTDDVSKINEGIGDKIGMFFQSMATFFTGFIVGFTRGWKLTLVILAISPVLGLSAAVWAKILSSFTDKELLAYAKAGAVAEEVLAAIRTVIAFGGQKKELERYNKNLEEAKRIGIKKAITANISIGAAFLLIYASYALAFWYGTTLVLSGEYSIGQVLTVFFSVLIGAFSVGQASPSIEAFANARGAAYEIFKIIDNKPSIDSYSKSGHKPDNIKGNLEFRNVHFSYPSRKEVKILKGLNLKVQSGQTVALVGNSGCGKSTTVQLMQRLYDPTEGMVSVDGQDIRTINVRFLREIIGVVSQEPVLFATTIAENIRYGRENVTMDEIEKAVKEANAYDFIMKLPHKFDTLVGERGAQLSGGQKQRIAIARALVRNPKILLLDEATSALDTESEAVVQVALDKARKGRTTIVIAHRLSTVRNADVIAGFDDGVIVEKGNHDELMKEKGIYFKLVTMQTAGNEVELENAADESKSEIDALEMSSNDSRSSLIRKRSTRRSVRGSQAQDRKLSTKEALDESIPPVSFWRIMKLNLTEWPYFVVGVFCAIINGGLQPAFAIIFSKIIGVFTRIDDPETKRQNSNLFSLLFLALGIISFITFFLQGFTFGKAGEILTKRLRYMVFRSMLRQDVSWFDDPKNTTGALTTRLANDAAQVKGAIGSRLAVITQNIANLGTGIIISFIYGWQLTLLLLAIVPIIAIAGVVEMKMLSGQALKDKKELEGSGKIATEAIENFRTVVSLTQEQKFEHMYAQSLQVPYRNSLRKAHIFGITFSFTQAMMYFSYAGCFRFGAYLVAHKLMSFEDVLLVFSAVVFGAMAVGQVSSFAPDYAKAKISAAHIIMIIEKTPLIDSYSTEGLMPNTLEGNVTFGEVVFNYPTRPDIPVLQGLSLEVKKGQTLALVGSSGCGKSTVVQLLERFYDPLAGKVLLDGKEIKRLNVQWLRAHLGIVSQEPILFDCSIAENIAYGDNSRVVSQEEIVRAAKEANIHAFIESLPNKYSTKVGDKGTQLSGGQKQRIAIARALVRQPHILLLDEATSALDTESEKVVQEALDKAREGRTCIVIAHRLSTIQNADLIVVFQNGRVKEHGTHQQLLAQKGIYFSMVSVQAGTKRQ

| SMILES | IC50 (NLRP3 inflammasome) | IC50 (NF-κB pathway) | efflux ratio at 60 min, 1 µM (MDR1 (P-gp)) | Papp A→B at 60 min, 1 µM (MDR1 (P-gp)) |
| --- | --- | --- | --- | --- |
| Cc1ccc(-c2nnc(N[C@@H]3C[C@@H](F)CN(C)C3)c3c2CCOC3)c(O)c1 [Example 220, 2-(4-(((3R,5R)-5-fluoro-1-methylpiperidin-3-yl)amino)-7,8-dihydro-5H-pyrano[3,4-d]pyridazin-1-yl)-5-methylphenol] | 8 nM | > 30 µM | 9 | 1.5 ×10⁻⁶ cm/s |
| CN1C[C@H](F)C[C@@H](Nc2nnc(-c3ccc(C(F)F)cc3O)c3c2COCC3)C1 [Example 239, 5-(difluoromethyl)-2-(4-(((3R,5R)-5-fluoro-1-methylpiperidin-3-yl)amino)-7,8-dihydro-5H-pyrano[3,4-d]pyridazin-1-yl)phenol] | 11 nM | > 30 µM | 39 | 1.2 ×10⁻⁶ cm/s |
| CCN1CCCC(Nc2nnc(-c3ccc(Cl)cc3)c3ccccc23)C1 (stereo not drawn) [Example 162, 4-(4-chlorophenyl)-N-(1-ethylpiperidin-3-yl)phthalazin-1-amine] | 18 nM | > 30 µM | – | – |
| CN1C[C@H](F)C[C@@H](Nc2nnc(-c3ccc(Cl)cc3O)c3c2CCOC3)C1 [Example 200, 5-chloro-2-(1-(((3R,5R)-5-fluoro-1-methylpiperidin-3-yl)amino)-7,8-dihydro-5H-pyrano[3,4-d]pyridazin-4-yl)phenol] | 3 nM | > 30 µM | – | – |
| CN1C[C@H](F)C[C@@H](Nc2nnc(-c3ccc(Cl)cc3)c3ccncc23)C1 [Example 189, 1-(4-chlorophenyl)-N-((3R,5R)-5-fluoro-1-methylpiperidin-3-yl)pyrido[3,4-d]pyridazin-4-amine] | 110 nM | > 30 µM | – | – |
| COc1ccc(-c2nnc(N[C@@H]3C[C@@H](F)CN(C)C3)c3c2COCC3)c(C(F)(F)F)c1 [Example 210, N-((3R,5R)-5-fluoro-1-methylpiperidin-3-yl)-4-(4-methoxy-2-(trifluoromethyl)phenyl)-7,8-dihydro-5H-pyrano[3,4-d]pyridazin-1-amine] | 757 nM | > 30 µM | – | – |
| CN1CCC[C@@H](Nc2nnc(-c3ccc(Cl)cc3F)c3ccncc23)C1 [Example 71, (R)-1-(4-chloro-2-fluorophenyl)-N-(1-methylpiperidin-3-yl)pyrido[3,4-d]pyridazin-4-amine] | 46 nM | 9.55 µM | – | – |
| COc1ccc(-c2nnc(N[C@@H]3CCCN(C)C3)c3cnccc23)c(O)c1 [Example 36, (R)-5-methoxy-2-(4-((1-methylpiperidin-3-yl)amino)pyrido[3,4-d]pyridazin-1-yl)phenol] | 10 nM | > 30 µM | – | – |
| COc1ccc(-c2nnc(N[C@@H]3C[C@@H](F)CN(C)C3)c3ccccc23)cc1 [Example 177, N-((3R,5R)-5-fluoro-1-methylpiperidin-3-yl)-4-(4-methoxyphenyl)phthalazin-1-amine] | 53 nM | > 30 µM | – | – |
| CN1CCCC(Nc2nnc(-c3ccc(C(F)F)cc3)c3ccccc23)C1 (stereo not drawn) [Example 21, 4-(4-(difluoromethyl)phenyl)-N-(1-methylpiperidin-3-yl)phthalazin-1-amine] | 75 nM | > 30 µM | – | – |
| Cc1ccc(-c2nnc(NC34CCC(O)(CC3)C4)c3c2COCC3)c(O)c1 [Example 232, 4-((4-(2-hydroxy-4-methylphenyl)-7,8-dihydro-5H-pyrano[3,4-d]pyridazin-1-yl)amino)bicyclo[2.2.1]heptan-1-ol] | 155 nM | > 30 µM | – | – |
| CN1C[C@H](F)C[C@@H](Nc2nnc(-c3ccc(Cl)cc3F)c3c2COCC3)C1 [Example 217, 1-(4-chloro-2-fluorophenyl)-N-((3R,5R)-5-fluoro-1-methylpiperidin-3-yl)-7,8-dihydro-5H-pyrano[3,4-d]pyridazin-4-amine] | 876 nM | > 30 µM | – | – |
| CCN1C[C@H](F)C[C@@H](Nc2nnc(-c3ccc(OC)cc3)c3ccncc23)C1 [Example 195, N-((3R,5R)-1-ethyl-5-fluoropiperidin-3-yl)-1-(4-methoxyphenyl)pyrido[3,4-d]pyridazin-4-amine] | 113 nM | > 30 µM | – | – |
| CN1CCCC(Nc2nnc(-c3ccc(Cl)cc3)c3ccccc23)C1 (stereo not drawn) [Example 113, 4-(4-chlorophenyl)-N-(1-methylpiperidin-3-yl)phthalazin-1-amine] | 47 nM | > 30 µM | – | – |
| CN1CCC[C@@H](Nc2nnc(-c3ccc(F)cc3O)c3ccncc23)C1 [Example 93, (R)-5-fluoro-2-(4-((1-methylpiperidin-3-yl)amino)pyrido[3,4-d]pyridazin-1-yl)phenol] | 30 nM | > 30 µM | – | – |
| CN1C[C@H](F)C[C@@H](Nc2nnc(-c3ccc(Cl)cc3F)c3c2CCOC3)C1 [Example 211, 4-(4-chloro-2-fluorophenyl)-N-((3R,5R)-5-fluoro-1-methylpiperidin-3-yl)-7,8-dihydro-5H-pyrano[3,4-d]pyridazin-1-amine] | 1150 nM | > 30 µM | – | – |

The remaining compounds from weak to strong by IC50 (NLRP3 inflammasome), led by results:

| IC50 (NLRP3 inflammasome) | IC50 (NF-κB pathway) | efflux ratio at 60 min, 1 µM (MDR1 (P-gp)) | Papp A→B at 60 min, 1 µM (MDR1 (P-gp)) | SMILES |
| --- | --- | --- | --- | --- |
| 1290 nM | > 30 µM | – | – | COc1ccc(-c2nnc(N[C@H]3C[C@@](C)(O)C3)c3ccccc23)cc1 [Example 124, cis-3-((4-(4-methoxyphenyl)phthalazin-1-yl)amino)-1-methylcyclobutan-1-ol] |
| 1050 nM | > 30 µM | – | – | COc1ccc(-c2nnc(N[C@@H]3C[C@@H](F)CN(C)C3)c3c2COCC3)c(F)c1 [Example 209, N-((3R,5R)-5-fluoro-1-methylpiperidin-3-yl)-4-(2-fluoro-4-methoxyphenyl)-7,8-dihydro-5H-pyrano[3,4-d]pyridazin-1-amine] |
| 490 nM | > 30 µM | – | – | CN1CC2CC2(Nc2nnc(-c3ccc(Cl)cc3)c3ccccc23)C1 (stereo not drawn) [Example 152, 4-(4-chlorophenyl)-N-(3-methyl-3-azabicyclo[3.1.0]hexan-1-yl)phthalazin-1-amine] |
| 276 nM | > 30 µM | – | – | COc1ccc(-c2nnc(NC3CCCN(C)C3)c3ccccc23)cc1 (stereo not drawn) [Example 123, 4-(4-methoxyphenyl)-N-(1-methylpiperidin-3-yl)phthalazin-1-amine] |
| 75 nM | > 30 µM | – | – | FCCN1CCCC(Nc2nnc(-c3ccc(Cl)cc3)c3ccccc23)C1 (stereo not drawn) [Example 140, 4-(4-chlorophenyl)-N-(1-(2-fluoroethyl)piperidin-3-yl)phthalazin-1-amine] |
| 68 nM | > 30 µM | – | – | CCN1CCCC(Nc2nnc(-c3ccc(OC)cc3)c3ccccc23)C1 (stereo not drawn) [Example 171, N-(1-ethylpiperidin-3-yl)-4-(4-methoxyphenyl)phthalazin-1-amine] |
| 58 nM | > 30 µM | – | – | CN1CCC[C@@H](Nc2nnc(-c3ccc(Cl)cc3)c3ccncc23)C1 [Example 64, (R)-1-(4-chlorophenyl)-N-(1-methylpiperidin-3-yl)pyrido[3,4-d]pyridazin-4-amine] |
| 10 nM | > 30 µM | – | – | C[C@]1(O)C[C@@H](Nc2nnc(-c3ccc(Cl)cc3O)c3ccncc23)C1 [Example 95, cis-5-chloro-2-(4-((-3-hydroxy-3-methylcyclobutyl)amino)pyrido[3,4-d]pyridazin-1-yl)phenol] |
| 2 nM | > 30 µM | 26 | 1.2 ×10⁻⁶ cm/s | Cc1ccc(-c2nnc(N[C@@H]3CCCN(C)C3)c3c2CCOC3)c(O)c1 [Example 218, (R)-5-methyl-2-(4-((1-methylpiperidin-3-yl)amino)-7,8-dihydro-5H-pyrano[3,4-d]pyridazin-1-yl)phenol] |
| 2 nM | > 30 µM | 22 | 1.5 ×10⁻⁶ cm/s | CN1CCC[C@@H](Nc2nnc(-c3ccc(Cl)cc3O)c3c2COCC3)C1 [Example 225, (R)-5-chloro-2-(4-((1-methylpiperidin-3-yl)amino)-7,8-dihydro-5H-pyrano[3,4-d]pyridazin-1-yl)phenol] |
